Assay [1] addresses T1, Human CD73 (amino acid residues 27-549) (Homo sapiens, UniProt P21589).
T1 construct: Human CD73 (amino acid residues 27-549); His tag (N); made in house; host or cells: E. coli
T1 sequence (P21589 27-549): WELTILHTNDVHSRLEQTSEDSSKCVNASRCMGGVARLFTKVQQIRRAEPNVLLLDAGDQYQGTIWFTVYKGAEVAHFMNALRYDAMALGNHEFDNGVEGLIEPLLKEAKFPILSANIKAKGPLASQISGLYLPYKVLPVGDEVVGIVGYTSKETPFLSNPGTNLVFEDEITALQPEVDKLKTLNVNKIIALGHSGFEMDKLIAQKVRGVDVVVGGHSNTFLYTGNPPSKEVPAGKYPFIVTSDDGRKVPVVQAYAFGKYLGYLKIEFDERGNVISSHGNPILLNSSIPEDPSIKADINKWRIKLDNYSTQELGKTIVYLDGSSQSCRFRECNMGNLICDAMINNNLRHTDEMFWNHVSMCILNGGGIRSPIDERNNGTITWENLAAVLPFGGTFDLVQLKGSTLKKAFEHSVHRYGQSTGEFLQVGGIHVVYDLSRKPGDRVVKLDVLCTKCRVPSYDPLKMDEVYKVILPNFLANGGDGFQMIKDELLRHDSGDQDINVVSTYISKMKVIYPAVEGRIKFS
Briefly: CD73 enzymatic assay (luciferase-based indirect assay, CellTiter-Glo). It is filed as biochemical. To be noted: 0.4 nM CD73, 150 μM AMP, 1 hour at room temperature. The procedure: CD73 enzymatic activity was measured in a luciferase-based indirect assay using CellTiter-Glo® system from Promega. The luciferase reaction in the presence of ATP is inhibited by AMP, a primary substrate of CD73. Addition of CD73 enzyme to the reaction converts AMP to adenosine, and release the inhibition, producing a luminescent signal. Inhibition of CD73 leads to the decrease of this luminescent signal.
Human CD73 (amino acid residues 27-549) with N-Terminal His tag was purified in E. coli. All the assay components were prepared in 50 mM HEPEs buffer (pH 7.4) with 0.01% Tween® 20. The CD73 enzymatic assay was performed using 0.4 nM CD73 and 150 μM AMP. 9.5 μL of CD73 protein and 9.5 μL of AMP were added to the wells of a 384 well plate containing 1 μL of various concentrations of test compound or DMSO vehicle and incubated for 1 hour at room temperature. 16 wells containing CD73, AMP and 5% DMSO served as high control. 16 wells containing AMP and 5% DMSO served as low control. Enzymatic reaction was stopped and AMP level was measured indirectly by adding 5 μL of CellTiter-Glo® 2.0 reagent and 5 μL of ATP with a final concentration of 1 μM. Following incubation of the plate at room temperature for 30 minutes, luminescent signal was read on a Tecan plate reader. The percentage inhibition at individual concentrations relative to high and low controls was calculated. The data were analyzed by using nonlinear regression to generate IC50 values.
For orientation: In ATP-based viability assays light output follows the ATP content of the culture.

For assay [2], the target named is T2, human CD73 (Homo sapiens, UniProt P21589).
T2 construct: expressed in transfected cells
T2 sequence (P21589 27-549): T1 sequence (P21589 27-549)
Briefly: Inhibitor activity against CD73 in cell based assay (CD73 expressing CHO-K1 cells). To be noted: CHO-K1 cells expressing human CD73, 150 μM AMP, 4 hours of incubation; read-out: CHO-K1 CELL VARIANT: CD73 IC50. As to the method:
Determine Inhibitor Activity Against CD73 in Cell Based Assay
CD73 expressing CHO-K1 cell clones were generated upon stable transfection of a plasmid expressing human CD73 under the control of CMV promoter. Cells were selected in Ham's F-12K (Kaighn's) media supplemented with 10% fetal bovine serum and 1 mg/ml G418 at 37° C. in a humidified incubator supplied with 5% CO2. The assays were performed as follows. Cells were seeded in a 96 well plate in 50 μL of culture media at a density of 1×10^4 per well. Compound at a maximal concentration of 5 mM was serially diluted 1:3 in DMSO for a total of 8 point titration. A 2 μL aliquot of each dilution point was added to 248 μL culture media and 25 µL was added to each well, providing 10 μM compound at the maximum concentration point. AMP was diluted in culture media and 25 μL was added to each well with a final concentration of 150 μM. 4 wells containing 0.2% DMSO treated cells and AMP served as high controls and 4 wells containing media only with 0.2% DMSO and AMP served as low controls. After 4 hours of incubation, 20 μL of the supernatant was transferred to a 384 well plate. AMP level in supernatant was measured indirectly by adding 5 μL of CellTiter-Glo® 2.0 reagent and 5 μL of ATP with a final concentration of 1 μM. Following incubation of plate at room temperature for 30 minutes, luminescent signal was read on a Tecan plate reader. The percentage inhibition at individual concentrations relative to high and low controls was calculated. The data were analyzed by using nonlinear regression to generate IC50 values.

This passage reports IC50 results from US12509444B2, “Compounds and methods for CD73 modulation and indications therefor” (Plexxikon Inc., priority 2019, dated 2025).

As to `O=C(N[C@@H]1CCN(c2cn[nH]c(=O)c2Cl)C1)OC1CCCCC1` [P-0015, cyclohexyl (R)-(1-(5-chloro-6-oxo-1,6-dihydropyridazin-4-yl)pyrrolidin-3-yl)carbamate], the IC50 in assay [1] was in the range of 0.001 to 10 µM; in assay [2], 10 to 100 µM.
`O=C(NC1CCCC1)O[C@@H]1CCN(c2cn[nH]c(=O)c2Cl)C1` [P-0017, (R)-1-(5-chloro-6-oxo-1,6-dihydropyridazin-4-yl)pyrrolidin-3-yl cyclopentylcarbamate]: the IC50 in assay [1] and in assay [2] was 0.001 to 10 µM each time.
Consider `O=C(NC1CCCCC1)O[C@@H]1CCN(c2cn[nH]c(=O)c2Cl)C1` [P-0018, (R)-1-(5-chloro-6-oxo-1,6-dihydropyridazin-4-yl)pyrrolidin-3-yl cyclohexylcarbamate], for which the IC50 in assay [1] and in assay [2] was 0.001 to 10 µM in each case.
For `O=C(NC1CCCC1)O[C@H]1CCN(c2cn[nH]c(=O)c2Cl)C1` [P-0020, (S)-1-(5-chloro-6-oxo-1,6-dihydropyridazin-4-yl)pyrrolidin-3-yl cyclopentylcarbamate], the IC50 in assay [1] is 0.001 to 10 µM; in assay [2], 10 to 100 µM.
Consider `O=C(NC1CCCCC1)O[C@H]1CCN(c2cn[nH]c(=O)c2Cl)C1` [P-0021, (S)-1-(5-chloro-6-oxo-1,6-dihydropyridazin-4-yl)pyrrolidin-3-yl cyclohexylcarbamate], for which the IC50 in assay [1] lay within 0.001 to 10 µM; in assay [2], 10 to 100 µM.
For `O=C(NC1CCC(F)(F)CC1)N[C@@H]1CCN(c2cn[nH]c(=O)c2Cl)C1` [P-0022, (R)-1-(1-(5-chloro-6-oxo-1,6-dihydropyridazin-4-yl)pyrrolidin-3-yl)-3-(4,4-difluorocyclohexyl)urea] the same measures were 0.001 to 10 µM and 10 to 100 µM.
As for `O=C(N[C@@H]1CCN(c2cn[nH]c(=O)c2Cl)C1)OC1CCCC1` [P-0030, cyclopentyl (R)-(1-(5-chloro-6-oxo-1,6-dihydropyridazin-4-yl)pyrrolidin-3-yl)carbamate], the IC50 fell in the range of 0.001 to 10 µM in assay [1] and 10 to 100 µM in assay [2].
Turning to `O=C(NC1CCCCC1)N[C@@H]1CCN(c2cn[nH]c(=O)c2Cl)C1` [P-0039, (R)-1-(1-(5-chloro-6-oxo-1,6-dihydropyridazin-4-yl)pyrrolidin-3-yl)-3-cyclohexylurea], the IC50 in assay [1] and in assay [2] was 0.001 to 10 µM throughout.
Consider `O=C(NC1CCCC1)N[C@@H]1CCN(c2cn[nH]c(=O)c2Cl)C1` [P-0046, (R)-1-(1-(5-chloro-6-oxo-1,6-dihydropyridazin-4-yl)pyrrolidin-3-yl)-3-cyclopentylurea], for which the IC50 in assay [1] and in assay [2] was 0.001 to 10 µM each time.
As to `O=C(NC1CCN(C(=O)C(F)(F)F)CC1)N[C@@H]1CCN(c2cn[nH]c(=O)c2Cl)C1` [P-0047, (R)-1-(1-(5-chloro-6-oxo-1,6-dihydropyridazin-4-yl)pyrrolidin-3-yl)-3-(1-(2,2,2-trifluoroacetyl)piperidin-4-yl)urea], the IC50 fell in the range of 0.001 to 10 µM in assay [1] and 10 to 100 µM in assay [2].
For `CC(C)(C)OC(=O)N1CCC(NC(=O)N[C@@H]2CCN(c3cn[nH]c(=O)c3Cl)C2)CC1` [P-0051, tert-butyl (R)-4-(3-(1-(5-chloro-6-oxo-1,6-dihydropyridazin-4-yl)pyrrolidin-3-yl)ureido)piperidine-1-carboxylate] the same measures were 0.001 to 10 µM and 10 to 100 µM.
For `CS(=O)(=O)N1CCC(NC(=O)N[C@@H]2CCN(c3cn[nH]c(=O)c3Cl)C2)C1` (stereo partly drawn) [P-0052, 1-((R)-1-(5-chloro-6-oxo-1,6-dihydropyridazin-4-yl)pyrrolidin-3-yl)-3-(1-(methylsulfonyl)pyrrolidin-3-yl)urea] the same measures were 0.001 to 10 µM and 10 to 100 µM.
For `O=C(NC1CCS(=O)(=O)C1)N[C@@H]1CCN(c2cn[nH]c(=O)c2Cl)C1` (stereo partly drawn) [P-0054, 1-((R)-1-(5-chloro-6-oxo-1,6-dihydropyridazin-4-yl)pyrrolidin-3-yl)-3-(1,1-dioxidotetrahydrothiophen-3-yl)urea], the IC50 in assay [1] is 0.001 to 10 µM; in assay [2] it was 10 to 100 µM.
For `Cc1c(N2CC[C@@H](NC(=O)OC(C)(C)C)C2)cn[nH]c1=O` [P-0056, tert-butyl (R)-(1-(5-methyl-6-oxo-1,6-dihydropyridazin-4-yl)pyrrolidin-3-yl)carbamate] the same measures were 0.001 to 10 µM and 10 to 100 µM.
For `Cc1c(N2CC[C@@H](NC(=O)NC3CCCC3)C2)cn[nH]c1=O` [P-0057, (R)-1-cyclopentyl-3-(1-(5-methyl-6-oxo-1,6-dihydropyridazin-4-yl)pyrrolidin-3-yl)urea] the same measures were 0.001 to 10 µM and 10 to 100 µM.
As to `Cc1c(N2CC[C@@H](NC(=O)NC3CCCC3)C2)cnn(C(=O)NC2CCCC2)c1=O` [P-0058, (R)-N-cyclopentyl-4-(3-(3-cyclopentylureido)pyrrolidin-1-yl)-5-methyl-6-oxopyridazine-1(6H)-carboxamide], the results for the IC50 in assay [1] and in assay [2] were 0.001 to 10 µM and 10 to 100 µM, respectively.
For `Cc1c(N2CC[C@@H](NC(=O)NC3CCCCC3)C2)cn[nH]c1=O` [P-0059, (R)-1-cyclohexyl-3-(1-(5-methyl-6-oxo-1,6-dihydropyridazin-4-yl)pyrrolidin-3-yl)urea] the same measures were 0.001 to 10 µM and 10 to 100 µM.
For `C[C@H]1CN(c2cn[nH]c(=O)c2Cl)C[C@@H]1NC(=O)NC1CCCCC1` [P-0062, 1-((3R,4S)-1-(5-chloro-6-oxo-1,6-dihydropyridazin-4-yl)-4-methylpyrrolidin-3-yl)-3-cyclohexylurea] the same measures were 0.001 to 10 µM and 10 to 100 µM.
For `C[C@H]1CN(c2cn[nH]c(=O)c2Cl)C[C@@H]1NC(=O)OC1CCCCC1` [P-0063, cyclohexyl ((3R,4S)-1-(5-chloro-6-oxo-1,6-dihydropyridazin-4-yl)-4-methylpyrrolidin-3-yl)carbamate] the same measures were 0.001 to 10 µM and 10 to 100 µM.
`N#Cc1c(N2CC[C@@H](NC(=O)NC3CCCC3)C2)cn[nH]c1=O` [P-0064, (R)-1-(1-(5-cyano-6-oxo-1,6-dihydropyridazin-4-yl)pyrrolidin-3-yl)-3-cyclopentylurea]: the results for the IC50 in assay [1] and in assay [2] were 0.001 to 10 µM and 10 to 100 µM, respectively.
For `N#Cc1c(N2CC[C@@H](NC(=O)NC3CCCCC3)C2)cn[nH]c1=O` [P-0065, (R)-1-(1-(5-cyano-6-oxo-1,6-dihydropyridazin-4-yl)pyrrolidin-3-yl)-3-cyclohexylurea] the same measures were 0.001 to 10 µM and 0.001 to 10 µM.
`O=C(NC1C2CC3CC(C2)CC1C3)N[C@@H]1CCN(c2cn[nH]c(=O)c2Cl)C1` (stereo partly drawn) [P-0087, (R)-1-(adamantan-2-yl)-3-(1-(5-chloro-6-oxo-1,6-dihydropyridazin-4-yl)pyrrolidin-3-yl)urea] gave an IC50 in assay [1] of 0.001 to 10 µM.
The same measure, in the same setting: next, `COC(=O)C12CCC(NC(=O)O[C@@H]3CCN(c4cn[nH]c(=O)c4Cl)C3)(CC1)CC2` [P-0120, methyl (R)-4-((((1-(5-chloro-6-oxo-1,6-dihydropyridazin-4-yl)pyrrolidin-3-yl)oxy)carbonyl)amino)bicyclo [2.2.2]octane-1-carboxylate]: 0.001 to 10 µM.

The term IC50 denotes the concentration at which inhibition is half-maximal.
